For data set [1], the target named is T1, KMT9 (Homo sapiens, UniProt Q9Y5N5).
T1 sequence (Q9Y5N5 1-214): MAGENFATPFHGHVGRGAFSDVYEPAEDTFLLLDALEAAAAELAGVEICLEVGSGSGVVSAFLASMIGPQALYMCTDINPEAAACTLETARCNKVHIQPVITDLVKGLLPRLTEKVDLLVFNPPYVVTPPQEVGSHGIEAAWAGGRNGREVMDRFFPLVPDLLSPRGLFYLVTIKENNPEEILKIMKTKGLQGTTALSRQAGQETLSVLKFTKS
T1 sequence (Q9UI30 1-125 partner): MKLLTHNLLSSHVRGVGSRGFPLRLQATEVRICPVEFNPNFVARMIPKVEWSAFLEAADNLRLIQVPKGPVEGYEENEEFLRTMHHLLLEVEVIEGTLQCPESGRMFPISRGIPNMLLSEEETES
Details: method as in previous study. Conditions: compound 2d taken as a reference from the previous study; ref previous study; cited from earlier work.

Data set [2] deals with T1, KMT9. In words: Microscale thermophoresis (MST) binding assay. The settings on record: for Kd: MST, binding to KMT9, read-out: Kd. Here is the method: To determine the binding affinity of the compound and KMT9, microscale thermophoresis (MST) analysis was performed with a NanoTemper Monolith NT.115 instrument (NanoTemper Technologies GmbH). KMT9 was labeled with a RED-Tris-NTA labeling kit (NanoTemper Technologies GmbH) based on the manufacturer’s instructions. Buffer including 25 mM HEPES (pH 7.5), 100 mM NaCl, 1 mM DTT and 0.05% Tween was used for the reaction buffer. Varying concentrations of compounds were titrated against His-tag labeled KMT9 proteins (20 nM). Samples were loaded into standard Capillaries (NanoTemper Technologies GmbH) and MST measurements were performed using 40% MST power and 100% LED power. For each set of binding experiments, MST measurement was carried out with Binding Affinity module in MO. Control program under Nano-RED excitation. Data sets were processed with the MO.Affinity Analysis software (NanoTemper Technologies GmbH).
(In general: Microscale thermophoresis detects binding through changes in fluorescence in a small temperature gradient.)

For data set [3], the target named is T1, KMT9. Details: method as in previous study. The settings on record: compound 2d taken as a reference from the previous study; ref previous study; cited from earlier work. This is another data set of the same source.
The target of data set [4] is T1, KMT9. The arrangement: method as in previous study. Conditions: compound 2d taken as a reference from the previous study; ref previous study; cited from earlier work. This is another data set of the same source.
The test system of data set [5] is panel of 27 SET domain-containing and 14 Rossmann-fold methyltransferases. Nature of the data set: Selectivity assay, radiometric methyltransferase panel. The format is biochemical. Conditions: IC50 panel, 3H-labeled SAM. As to the method: Selectivity profile of compound 6 was evaluated by testing the IC50 in a panel of methyltransferases. The IC50 of a panel of SET-domain containing and Rossmann-fold methyltransferases was assessed in a radiometric assay measuring substrate methylation using ^3H-labeled SAM by RBC Corp by compound 6. Data was process and plotted using KNIME Analytic Platform from KNIME AG.

Data set [6] concerns the target T2, endogenous KMT9a (Homo sapiens, UniProt Q9Y5N5).
T2 construct: increased thermal stability of endogenous KMT9 in SW480 cell lysates; endogenous in cells; host or cells: SW480
T2 sequence (Q9Y5N5 1-214): T1 sequence (Q9Y5N5 1-214)
T2 sequence (Q9UI30 1-125 partner): T1 sequence (Q9UI30 1-125 partner)
In words: CETSA in intact SW480 cells, KMT9. The format is cell-based. The settings on record: 18 h, vs DMSO. Here is the method: (§1) For whole cell CETSA, the cells were incubated with 10/15 μM of compound 7b/8/8-N for 18 h. Then, cells were washed with cell culture medium, detached from the surface using trypsin, washed with PBS and the number of cells was determined. Cell concentration was adjusted to 3.6 × 10^7 cells/mL using in PBS with Complete (w/o EDTA, Roche) protease inhibitor. Then, cells were frozen in liquid nitrogen and thawed at 25 °C three times, before being divided in 16 aliquots. Each aliquot was heated to a defined temperature between 40 and 70 °C in a PCR cycler (16 well gradient, 55 °C ± 15). After 3 min incubation, aliquots were snap frozen in liquid nitrogen and thawed at 25 °C. Cell lysates were then centrifuged at 20,000 × g , 4 °C for 20 min. Supernatant were mixed with 5× loading buffer, heated to 70 °C for 5 min and analyzed by Western blotting essentially as previously described. For the CETSA performed with cell lysates, cells were directly harvested and lysed as described above. The lysates were then split and incubated either with DMSO or 10 μM compound 7b for 2 h. Then, lysates were aliquoted again into 16 samples each and treated as described for the whole cell CETSA.

For the next data set, the target named is T3, KMT5A (Homo sapiens, UniProt Q9NQR1).
T3 sequence (Q9NQR1 1-393): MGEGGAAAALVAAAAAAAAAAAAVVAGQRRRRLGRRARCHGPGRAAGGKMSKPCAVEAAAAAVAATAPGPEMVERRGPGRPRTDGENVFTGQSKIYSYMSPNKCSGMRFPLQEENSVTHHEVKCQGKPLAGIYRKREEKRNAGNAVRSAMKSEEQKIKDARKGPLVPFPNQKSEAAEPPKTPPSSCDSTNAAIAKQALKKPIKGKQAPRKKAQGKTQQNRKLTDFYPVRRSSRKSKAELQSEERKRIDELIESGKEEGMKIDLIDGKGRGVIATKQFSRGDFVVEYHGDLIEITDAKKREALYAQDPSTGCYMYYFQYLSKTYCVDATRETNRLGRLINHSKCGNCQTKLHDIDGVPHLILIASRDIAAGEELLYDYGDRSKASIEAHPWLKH
In words: CETSA in SW480 cell lysate, KMT5A (negative control). The arrangement: endogenous in cells; host or cells: SW480. The format is binding. Conditions: negative control protein. Here is the method: as §1, with “The lysates were then split and incubated either with DMSO or 10 μM compound 7b for 2 h. Then, lysates were aliquoted again into 16 samples each and treated as described for the whole cell CETSA.” left out
(§2) Figure S4. […] Representative Western blots (A) and quantification (B) showing no obvious shifting melting temperatures (ΔT m) of endogenous KMT5A upon treatment with compound 7b compared to DMSO. […]
(§3) Representative Western blots (C) and quantification (D) showing no shifting melting temperatures (ΔT m) of endogenous KMT5A upon treatment with compound 8 compared to DMSO. […]

In data set [7] the target is T1, KMT9. Nature of the data set: KMT9 methyltransferase inhibition assay (3H-SAM, ETF1 substrate).
Experimental: The assay was carried out in 0.5 mL Eppendorf tubes in duplicates. Assay buffer consisted of 50 mM BTP, 1 mM MgCl2, 1 mM DTT and 0,01% Triton-X100 at a pH of 8.5 (adjusted using 1 M HCl and 1 M NaOH). 20X inhibitor stock (in DMSO), 2× enzyme stock and 4× substrate mix (both in assay buffer) were prepared. The substrate mix consisted of Tritium-labeled S-adenosylmethionine (3H-SAM), S-adenosylmethionine (SAM) and eukaryotic peptide chain release factor subunit1 (, residues 140–275) (ETF1). Final assay concentrations were set to 25 nM KMT9, 0.3 μM 3H-SAM, 0.7 μM SAM and 5 μM ETF1. […] Five μL of 4× substrate mix was added to initiate the reaction. The final reaction volume was 20 μL. For the positive control, the compound was replaced by DMSO; for the negative control, the compound was replaced by DMSO and KMT9 was replaced by assay buffer. The reaction mix was incubated in an Eppendorf thermomixer comfort at 30 °C for 2 h, shaking at 300 rpm. The reaction was quenched using 5 μL 50% trichloroacetic acid (TCA) and incubated at 25 °C for 5 min. Twenty-two μL of the mixture was transferred into 96-well MultiScreenHTS FB filter plates (Merck KGaA, Darmstadt, Germany) and washed four times with 10% TCA and two times with 100% ethanol. The plate was dried overnight, the filters were transferred into individual 6 mL Pony Vials (PerkinElmer Inc., Waltham, MA, USA) and incubated in 3 mL of Ultima Gold scintillation cocktail (PerkinElmer Inc., Waltham, MA, USA) for 30 min. The scintillation signal was measured for 3× 1 min using TriCarb 2910 TR (PerkinElmer) scintillation counter in 3H CPM mode (LL: 0, UL: 18.6).
Inhibition was calculated using the following formula: Inhibition[%]=(1−xc−xpos/xpos−xneg)×100
With xc: signal of compound, xpos: mean signal of positive control, xneg: mean signal of negative control. Data fitting was carried out by GraphPad 7.0 using nonlinear fit ([Inhibitor] vs response – variable slope (four parameters)).
The target of data set [8] is T2, endogenous KMT9a. In words: CETSA in SW480 cell lysate, KMT9. In kind it is binding. The settings on record: 2 h, vs DMSO. Here is the method:
as §1

In data set [9] the target is T1, KMT9. Nature of the data set: Thermal shift assay (SyproOrange). In kind it is binding. Conditions: thermal shift, 2 μM KMT9, 500 μM compound; read-out: ΔTm. As to the method:
The assay was carried out in 96-well Hard-Shell PCR plates (Bio-Rad Laboratories Inc.). […] Final assay concentrations were set to 500 μM of compound 8, 2 μM KMT9 and 5× SO. One μL of 20× compound, 4 μL of assay buffer, 10 μL of 2× KMT9 and 5 μL of 4× SO were pipetted. For the no-compound control, 20× inhibitor stock was replaced by DMSO. The final volume was 20 μL. The plate was spun down at 700 rpm for 1 min using a Hettich UNIVERSAL 320 centrifuge and incubated at 25 °C, shaking at 600 rpm. After incubation, the plate was spun down for 1 min at 700 rpm and measurement was conducted using a CFX96 Touch Real-Time PCR Detection System (Bio-Rad Laboratories Inc.). The plate was equilibrated at 20 °C for 4 min and then heated stepwise at a rate of 1 °C per 15 s until 95 °C. After every step, fluorescence was measured in FRET mode. Calculation of melting points was conducted by a Boltzman sigmoidal model using GraphPad Prism 7.0.

The target in the next data set is T4, KMT9a (Homo sapiens, UniProt Q9Y5N5).
T4 sequence (Q9Y5N5 1-214): T1 sequence (Q9Y5N5 1-214)
T4 sequence (Q9UI30 1-125 partner): T1 sequence (Q9UI30 1-125 partner)
Nature of the data set: CETSA in Caco-2 cells, KMT9. The format is cell-based. Details: of endogenous KMT9 upon treatment with; endogenous in cells; host or cells: Caco-2. Conditions: 15 μM. As to the method: as §1, with “The lysates were then split and incubated either with DMSO or 10 μM compound 7b for 2 h. Then, lysates were aliquoted again into 16 samples each and treated as described for the whole cell CETSA.” left out
as §2, §3

For another data set, the system named is Caco-2 cells. In words: Cell proliferation assay (X-Celligence), Caco-2. The format is cell-based. Conditions: Xcelligence, vs DMSO. Here is the method: Cell proliferation was determined using the X-Celligence RTCA system (Roche). For real-time recording of SW480, Caco-2 cell proliferation, 5000 cells/well were seeded in 16 well E-plates (Roche). […] Cell indices were automatically recorded every 15 min. Relative velocities represent the change of the cell index over time. The sequences of the siRNAs (Stealth RNAi siRNAs; Life Technologies) used in the experiments have been previously described.

Data set [10] relates to H4K12me1 levels in PC-3 M prostate tumor cells. In words: Western blot of cellular H4K12me1 levels. The format is cell-based. Conditions: PC-3 M cells, 10 μM, 3 days. As to the method:
7 Cellular activity of prodrug compound 8. (A) Levels of H4K12me1 in PC-3 M prostate tumor cells cultured in the presence of DMSO (−), 10 μM compound 8 or compound 8-N for 3 days were analyzed by Western blot using the indicated antibodies. Histone H4 was used as control. (B, C) Proliferation of Caco-2 cells treated with DMSO (Ctrl), compound 8, or compound 8-N were measured by Xcelligence. Data represent means ± s.d (n = 3). (D) Proliferation of HepG2 cells upon treatment of DMSO (Ctrl) and compound 8.
Experiments were performed as previously described. Histones used for Western blot analysis were extracted from cells as following: Cells were harvested, washed with PBS, resuspended in Triton Extraction Buffer (TEB; PBS, Triton ×100, 2 mM PMSF, 0.02% NaN3), stored 10 min on ice, centrifuged, and supernatant was discarded. After washing cells, a second time with TEB, pellets were resuspended in 0.2 N HCl and histones were acid-extracted overnight at 4 °C. Upon centrifugation for 10 min at 2000 rpm, supernatant was collected and protein concentration was determined. Three days before harvesting, cells were transfected with siRNA as indicated. The following antibodies were used: anti-KMT9α (#27630, lot 20062017, Schüle Lab), antihistone H4 (#ab10158, lot GR322677–1, Abcam), anti-H4K12me1 (#27429, lot 27062017, Schüle Lab).
On the technique in general: In western blotting, separated proteins are transferred to a membrane and probed.

Read-outs that look alike come from different tables or passages of the source.

For `NCCCN(CC[C@H](N)C(=O)O)C[C@H]1O[C@@H](n2cnc3c(N)ncnc32)[C@H](O)[C@@H]1O` [compound 2d, (S)-2-Amino-4-((((2R,3S,4R,5R)-5-(6-amino-9H-purin-9-yl)-3,4-dihydroxytetrahydrofuran-2-yl)methyl)(3-aminopropyl)amino)butanoic acid], the IC50 on KMT9 [1] was 29 nM. Further, the “Increase of binding compared to compound 1” value on KMT9 [2] (Kd ratio vs compound 1) is on record as “about 1000 fold”. Besides, the ΔTm entry on KMT9 [3] was “ΔTm= 18.12 K”. The Kd at KMT9 [4] was 10 nM.
Turning to `CNc1ncnc2c1ccn2[C@@H]1C[C@H](CN(CCCNCCc2ccccc2)CC[C@H](N)C(=O)O)[C@@H](O)[C@H]1O` [compound 6, (S)-2-Amino-4-((((1R,2R,3S,4R)-2,3-dihydroxy-4-(4-(methylamino)-7H-pyrrolo[2,3-d]pyrimidin-7-yl)cyclopentyl)methyl)(3-(phenethylamino)propyl)amino)butanoic acid], the “Selectivity against SET-domain containing and Rossmann-fold MTs” value in data set [5] was “selective for KMT9 against other MTs”. Also, the equilibrium dissociation constant (Kd) at KMT9 [2] (given in nM) was found to be 30 nM.
`CNc1ncnc2c1ccn2[C@@H]1C[C@H](CN(CCCNCCc2ccc(Oc3ccc(Cl)cc3)c(F)c2)CC[C@H](N)C(=O)O)[C@@H](O)[C@H]1O` [compound 7b, (s)-2-Amino-4-((3-((4-(4-chlorophenoxy)-3-fluorophenethyl)amino)propyl) (((1R,2R,3S,4R)-2,3-dihydroxy-4-(4-(methylamino)-7H-pyrrolo[2,3-d]pyrimidin-7-yl)cyclopentyl)methyl)amino)butanoic Acid]: the results for the ΔTm at 10 µM at endogenous KMT9a [6], on KMT5A and at endogenous KMT9a [8] were 1.8 °C, 1.1 °C and 10.9 °C, respectively. Also, at KMT9 [7], 160 nM corresponded to half-maximal inhibition (IC50). Further, the Kd is 12 nM at KMT9 [2] (given in nM) and 10 nM on KMT9 [2]. Besides, the ΔTm at 500 µM at KMT9 [9] turned out to be 19.7 °C.
Regarding “Ethyl (S)-2-amino-4-((3-(4-(4-chlorophenoxy)-3-fluorophenethoxy)propyl) (((1R,2R,3S,4R)-2,3-dihydroxy-4-(4-(methylamino)-7H-pyrrolo[2,3-d]pyrimidin-7-yl)cyclopentyl)methyl)amino)butanoate [compound 8-N]”, the “ΔTm of endogenous KMT9 (CETSA)” value on endogenous KMT9a [6] (10 μM) is −0.6 K. The “ΔTm of KMT9 (CETSA)” value on KMT9a was found to be 0.1 K. Also, the “Proliferation of Caco-2 cells” value with Caco-2 cells is on record as “fails to do so”. Also, in data set [10], the “Levels of H4K12me1” value was “no effect was observed”.

Usually IC50 stands for the point on the concentration scale where inhibition reaches its midpoint. By ΔTm is commonly meant the change in melting temperature against a reference sample. As usually defined, the Kd is the equilibrium constant for the complex coming apart.
